The values below come from paper PMC10385664, “Projection of Target Drug Particle Size in Oral Formulations Using the Refined Developability Classification System (rDCS)” (Pharmaceutics, 2023).

The nature of data set [1]: Shake-flask n-octanol/water logDpH7.4 with HPLC-UV. The data set is classed as physicochemical. The conditions noted are these: octanol / 0.01 M phosphate buffer pH 7.4, 25 °C. On the procedure: LogDpH7.4 values of the three APIs were determined at Pion Inc (UK) Ltd. (Forest Row, UK) using a shake-flask screening method and high performance liquid chromatography with UV detection (HPLC-UV). Samples containing the API were equilibrated between octanol-saturated 0.01 M phosphate buffer at pH 7.4 and buffer-saturated octanol and analyzed by HPLC-UV. The experimental details are provided in Supplementary Materials. Measured logDpH7.4 values are presented as means (±SD) and were compared to literature values as well as in silico predictions using the software ADMET Predictor version 9 and ACD/Labs Release 2021.1.2. […]
version 9 (Simulations Plus Inc., Lancaster, CA, USA) and ACD/ Labs Release 2021.1.2 (Advanced Chemistry Devel opment Inc., Toronto, Canada) with the molecular structure as input.
S.2.3. n‐Octanol/Water Distribution Coefficient (logDpH7.4) […]
screening method and HPLC analysis. Samples (n = 3) were prepared by addition of a 10 mM API stock solution in DMSO to an oct anol saturated 0.01 M phosphate buffer at pH 7.4 to prepare a 1:10 dilution (ionic strength adjusted with 0.15 M NaCl). Buffer saturated octanol was added (1:1) to prepare pa rtiti on systems, which were agitated on an electronic shake pla te for 4 h at 25 ± 2°C. All samples were centrifuged, and aqueous and octanol layers were separately transferred to 96 well plat es. Both layers of each replicate were analyzed with a standard HPLC gradient method (Table S3). A Waters Acquity H‐Class Plus System consisting of a sample manager, a quaternary solvent manager and a photodiode array (PDA) detector was used. All HPLC data was collected and processed using the software Empower® version 3.0. Measured logDpH7.4 values are presented as means with standard deviation and were compared to literature va lu es and predictions using the software ADMET Predictor version 9 and ACD/Labs Release 2021.1.2 wit h the molecular structure as input.
Table S3. Standard HP LC method for the determination of logDpH7.4 values.
System Waters Acquity H‐Class Plus System […]

Data set [2] can be described thus: rDCS standard investigations: D/S ratio, SLAD and rDCS classification. On the procedure:
rDCS analysis was performed as described by Rosenberger et al.. […] The An can be calculated according to Equation (30):(30) An=DF·Peff/Rsi·Tsi
The rDCS classification according to the standard investigations was based on the D/S ratios, Peff and SLAD.

A further data set concerns Caco-2 cells. In words: Caco-2 permeability assay (pH 6.5/7.4 gradient, ± elacridar). On the procedure:
In vitro permeability studies were performed at Cyprotex Discovery Ltd. (Macclesfield, UK) using a high-throughput Caco-2 permeability assay. Permeability at 37 °C was assessed from the apical to basolateral side (A⟹B) and in opposite direction (B⟹A) applying a pH gradient with pH 6.5 in the apical and pH 7.4 in the basolateral compartment (Hanks Balanced Salt Solution, HBSS). After an incubation of 120 min, samples were diluted for analysis via liquid chromatography coupled with tandem mass spectrometry (LC-MS/MS). […] Experiments were performed in absence and presence of the P-glycoprotein (P-gp) inhibitor elacridar (10 µM) to study transporter-mediated efflux effects. The dosing solutions contained the API (10 µM) in HBSS, and DMSO in a concentration of ≤1% v/v. Lucifer yellow (100 µM) was included as fluorescent integrity marker. Further experimental details are provided in Supplementary Materials.
The apparent permeability coefficients (Papp) were calculated according to Equation (27):(27) Papp=dQ/dt/C0·A where dQ/dt is the permeation rate of the API across the cell monolayer, C0 is the starting concentration of the API in the dosing solution and A is the surface area of the cell monolayer. The efflux ratios (ERs) were calculated from the B⟹A and A⟹B Papp values to estimate whether P-gp mediated efflux was involved in the transport of the APIs. The mass balance (% recovery) was calculated from the sum of the API recovered from the acceptor and donor compartments at the end of the experiment, divided by the initial donor amount.
Table S6. Gradient of the UPLC method for analysis of lemborexant.
Table S7. Gradient of the UPLC method for analysis of istradefylline.
S.2.5. rDCS Standard Investigations: Caco‐2 permeability studies
Caco‐2 cells were obtained from the American Type Culture Collection (ATCC, Manassas, VA, USA) and used between passage numbers 40 to 60. The cells were seeded onto Millipore Multiscreen Transwell plates at a density of 1 x 10^5 cells/cm2 and cultured in Dulbeccoʹs Modified Eagleʹs Medium (DMEM). The medium was changed every two or three days. Ce l l culture was carried out at 37 °C in an atmosphere of 5 % CO2 with a relative humidity of 95 %. The permeability assay was performed on day 20.
In vitro permeability was assessed wit h a high‐throughput Caco‐2 permeability assay. The assay was prepared by rinsing apical and basolateral monolayer surfaces twice with Hanks Balanced Salt Solution (HBSS) at the desired pH and 37 °C. Subsequently, cells in the apical and basolateral compartments were incubated with HBSS at the desired pH for 40 min. A pH gradient with pH 6.5 in the apical compartment and pH 7.4 in the basolateral compartment was applied. Dosing solutions containing the API (10 μ M) were prepared by diluting a concentrated API solution in DMS O with HBSS. The final DMSO concentration was ≤ 1% v/v. Lucifer yellow (100 μM) was included in the dosing solution as fluorescent integrity marker. For the assessment of the permeability from the apical to basolateral side (A⟹B), HBSS in the apical compartment was replaced with the dosing solution. The apical inserts were placed into a companion plat e containing fresh buffer with 1% v/ v DMSO. For the assessment of the permeability from the basolateral to […]
apical side (B⟹A), HBSS was removed from the companion plate and replaced with the solution of drug in HBSS. Fresh HBSS was added to the apical insert, which was then placed into the companion plate.
Experiments were performed in absence and presence of the P‐glycoprotein (P‐gp) inhibitor elacridar (10 μM) to study transporter‐mediated efflux effects. In those experiments, elacridar was included in both compartments during the equilibration time and assay. The starting concentration (C0) was confirmed by sampling from the dosing solution immediately before dosing into the cell pl ates. After incubation of 120 minutes, the apical inserts and companion plates were separated for sampling from both compartments.
In general terms: Passage across Caco-2 layers is used to estimate intestinal permeability.

What is called logD is lipophilicity at a set pH, counting ionised and neutral species. A lower logD goes with a more hydrophilic compound.

In data set [1], `CCn1c(=O)c2c(nc(/C=C/c3ccc(OC)c(OC)c3)n2C)n(CC)c1=O` [Istradefylline, istradefylline] displayed a log distribution coefficient (logD) at 4 h of 2.96 ± 0.03. Moreover, the “SLAD (solubility-limited absorbable dose)” value in data set [2] came out at 8.50 mg.
Turning to `Cc1ncc(OC[C@@]2(c3cccc(F)c3)C[C@H]2C(=O)Nc2ccc(F)cn2)c(C)n1` [Lemborexant, lemborexant], the logD at 4 h in data set [1] was found to be 3.04 ± 0.05. Also, the permeability assessment entry in the data set on Caco-2 cells (against antipyrine, propranolol and atenolol as comparators) is recorded as “highly permeable”. Further, the “SLAD (solubility-limited absorbable dose)” value in data set [2] came to 49.6 mg.
On to `C[C@@H](c1ncncc1F)[C@](O)(Cn1cncn1)c1ccc(F)cc1F` [Voriconazole, voriconazole], for which the pH-dependent lipophilicity (logD) at 4 h in data set [1] was 1.66 ± 0.03. Moreover, in the data set on Caco-2 cells (Caco-2), the permeability assessment entry is recorded as “high permeability”. For the same compound, the “SLAD (solubility-limited absorbable dose)” value in data set [2] is 1810 mg.
